Earlier results, collected in patent publication US5643912A, “Pyrazinoic acid esters as anti-mycobacterium avium agents” (The Research Foundation of State University of NY, priority 1996, dated 1997).

Test system: Mycobacterium (M.) tuberculosis
Details: cited from earlier work

For `NC(=O)c1cnccn1` [pyrazinamide], the resistance development is given as “resistance develops quickly”.
